# Key:
# Staphylococcus aureus [1] = assay: Antibiofilm activity against Staphylococcus aureus ATCC 29213 at 6.2 ug/ml relative to control; assay type: functional
# Staphylococcus aureus [2] = assay: Antibiofilm activity against Staphylococcus aureus ATCC 29213 at 25 ug/ml relative to control; assay type: functional
# [3] = system: Staphylococcus epidermidis; assay: Antibiofilm activity against Staphylococcus epidermidis at 25 ug/ml relative to control; assay type: functional
# Staphylococcus aureus [4] = assay: Antibiofilm activity against methicillin-resistant Staphylococcus aureus; assay type: functional, organism-based
# Enterococcus faecalis = assay: Antibiofilm activity against Enterococcus faecalis; assay type: functional
# Staphylococcus aureus [5] = assay: Antibiofilm activity against methicillin-resistant Staphylococcus aureus ATCC BAA-44; assay type: functional, organism-based
# Staphylococcus aureus [6] = assay: Antibiofilm activity against methicillin-resistant Staphylococcus aureus ATCC BAA-44 preformed biofilms assessed as reduction in biofilm dispersion; assay type: functional, organism-based
# [7] = target: Fucose-binding lectin PA-IIL (Pseudomonas aeruginosa (strain ATCC 15692 / DSM 22644 / CIP 104116 / JCM14847 / LMG 12228 / 1C / PRS 101 / PAO1), UniProt Q9HYN5); assay: Inhibition of N-(Fluorescein-5-yl)-N'-(alpha-L-fucopyranosyl ethylen)thiocarbamide binding to Pseudomonas aeruginosa PA14 LecB after 22 to 24 hrs by fluorescence polarization assay
# Staphylococcus aureus [8] = assay: Antibiofilm activity against methicillin-resistant Staphylococcus aureus isolate 2; assay type: functional
# [9] = system: Staphylococcus epidermidis; assay: Antibiofilm activity against Staphylococcus epidermidis; assay type: functional
# Staphylococcus aureus [10] = assay: Antibiofilm activity against methicillin-resistant Staphylococcus aureus BAA-1707; assay type: functional
# Enterococcus = assay: Antibiofilm activity against vancomycin-resistant Enterococcus; assay type: functional
# Vibrio cholerae [11] = assay: Antibiofilm activity against Vibrio cholerae assessed as inhibition of biofilm dispersion; assay type: functional, organism-based
# Vibrio cholerae [12] = assay: Antibiofilm activity against Vibrio cholerae; assay type: functional, organism-based
# Sortase A = target: T1, Sortase A (Staphylococcus aureus, UniProt Q9S446); assay: Inhibition of Staphylococcus aureus SrtA
# T1 sequence (Q9S446 whole entry): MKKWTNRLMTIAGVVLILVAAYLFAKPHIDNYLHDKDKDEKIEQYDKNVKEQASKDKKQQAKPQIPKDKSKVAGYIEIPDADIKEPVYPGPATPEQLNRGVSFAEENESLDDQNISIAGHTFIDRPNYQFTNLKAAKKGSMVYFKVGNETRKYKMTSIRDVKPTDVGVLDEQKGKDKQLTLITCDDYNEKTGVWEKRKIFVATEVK
# Staphylococcus aureus [13] = assay: Antibiofilm activity against Staphylococcus aureus ATCC 6538; assay type: functional, organism-based
# Enterococcus faecium = assay: Antibiofilm activity against Enterococcus faecium; assay type: functional
# Fucose-binding lectin PA-IIL, sequence (Q9HYN5 1-115): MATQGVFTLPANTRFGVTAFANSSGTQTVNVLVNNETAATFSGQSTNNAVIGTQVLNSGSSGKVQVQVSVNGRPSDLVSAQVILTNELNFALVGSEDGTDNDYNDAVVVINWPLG
compound,measurement,setting,value
Cc1nn(C)c([N-]C(=O)c2ccc([N+](=O)[O-])cc2)c1[N+]#N,Activity,Staphylococcus aureus [1],86.5%
same,Activity,Staphylococcus aureus [2],69 - 96%
same,Activity,[3],69 - 96%
CCCCCCCCCCCC[N+](C)(C)CCNCC[N+](C)(C)CCCCCCCCCCCC,MBEC,Staphylococcus aureus [4],50 µM
same,MBEC,Enterococcus faecalis,25 µM
CCCCC(Cl)(Cl)C1NC(=O)/C(=C/c2ccc(C(F)(F)F)cc2)O1 (stereo not drawn),IC50,Staphylococcus aureus [5],0.78 µM
same,IC50,Staphylococcus aureus [6],4.7 µM
Cc1cc(C)c(S(=O)(=O)NC[C@H]2O[C@@H](C)[C@@H](O)[C@@H](O)[C@@H]2O)c(C)c1,IC50,[7],0.34 µM
Oc1c(Br)cc(Br)c2ccc(CNc3ccc(F)cc3)nc12,MBEC,Staphylococcus aureus [8],93.8 µM
same,MBEC,[9],5.9 µM
same,MBEC,Staphylococcus aureus [10],7.8 µM
same,MBEC,Enterococcus,1 µM
O[C@H](c1cc(-c2cccc(S(F)(F)(F)(F)F)c2)nc2ccccc12)[C@@H]1CCCN1,DC50,Vibrio cholerae [11],7.4 µM
same,IC50,Vibrio cholerae [12],4.4 µM
CCOC(=O)/C(=N/Nc1c(F)cccc1F)C(=O)c1cc(C)nn1CC,IC50,Sortase A,75 µM
same,IC50,Staphylococcus aureus [13],0.9 µM
CCc1cccc2nc3c(O)c(Br)cc(Br)c3nc12,MBEC,Enterococcus faecium,0.59 µM
same,MBEC,[9],2.35 µM
